Like-named read-outs stand apart in the source and are kept apart here.
Experiments:
[1] = tested on: eGFP expressing LdBOB amastigote-like cells in PMA differentiated THP-1 cells; assay: Intramacrophage (intracellular, INMAC) assay; format: cell-based, Leishmania donovani; conditions: for EC50: Leishmania donovani, THP-1, 96 h, reference compound panel, mean (standard deviation), minimum three independent repeats, four day incubation, read-out: Intramacrophage (potency, pEC50) (converted)
Protocol: (§1) Compounds were dispensed into 384-well assay plates by acoustic dispensing (LabCyte ECHO). […] Potencies are reported as pEC50 (-LOG(EC50[M])).
(§2) All data was processed using IDBS ActivityBase. […] Potency plates were normalised to DMSO control (0% effect) and 2μM amphotericin B control (100% effect). […] For compounds with low activity and poor definition of the curve top, B was fixed to 100. For the determination of the reference compound panel potency, all experiments were carried out with a minimum of three independent repeats.
(§3) The assay conditions are described previously. Briefly PMA differentiated THP-1 cells were infected overnight with eGFP expressing LdBOB amastigote-like cells at a multiplicity of infection of 5. Next, any remaining free amastigote-like cells are removed and compounds are added. The microscopy-based read-out is done after a four day compound incubation.

[2] = set-up: method as in PMID 197231; conditions: cited from earlier work
[3] = tested on: LdBOB axenic amastigote-like cells; assay: Novel (cidal) axenic amastigote assay, BacTiter-Glo read-out; format: cell-based, Leishmania donovani; conditions: for EC50: Leishmania donovani
Source text: Leishmania donovani BOB cells (LdBOB) used in this study are a cloned line from strain MHOM/SD/62/1S-CL2 [13]. Cultures were maintained as described previously. Compounds were dispensed into 384-well assay plates by acoustic dispensing (LabCyte ECHO). […] Potencies are reported as pEC50 (-LOG(EC50[M])). All data was processed using IDBS ActivityBase. […] For compounds with low activity and poor definition of the curve top, B was fixed to 100. For the determination of the reference compound panel potency, all experiments were carried out with a minimum of three independent repeats. Test compounds were pre-dispensed into white 384 well plates (Corning). For library screens one compound per well was tested at the indicated final concentration. […] DMSO, zero percent effect control: cells at starting concentration. The zero percent effect control wells are left empty during the course of the assay. […] The assay volume is 25 μl / well. […] Plates were then sealed with clear film and relative luminescence was detected using a plate reader (Victor 3) from Perkin Elmer or PHERAstar FS from BMG LABTECH, with 0.5 s detection time per well).

THP-1 cells = assay: THP-1 host cell toxicity in the intramacrophage assay; format: cell-based, human; conditions: Homo sapiens, THP-1; reference compound panel; mean (standard deviation); host cell toxicity; read-out: THP-1 (potency, pEC50) (converted)
Protocol: as §1, §2, §3

HepG2 cells = assay: HepG2 assay (mammalian counterscreen, resazurin); format: cell-based, human; conditions: Homo sapiens, HepG2; reference compound panel; mean (standard deviation); 72 h; read-out: HepG2 (potency, pEC50) (converted)
Protocol: Compounds were dispensed into 384-well assay plates by acoustic dispensing (LabCyte ECHO). […] Potencies are reported as pEC50 (-LOG(EC50[M])). All data was processed using IDBS ActivityBase. […] For compounds with low activity and poor definition of the curve top, B was fixed to 100. For the determination of the reference compound panel potency, all experiments were carried out with a minimum of three independent repeats. The assay conditions are described previously.

[4] = cited from earlier work
[5] = read-out: Novel (axenic assay potency, pEC50) (converted)

Question: Which EC50 [1] does the source give for `CCN(CC)C(=S)SSC(=S)N(CC)CC` [Disulfiram] here?
Answer: The EC50 was greater than 34.7 µM.

Question: What about the stability in serum [2] of the same molecule?
Answer: The stability in serum was “unstable in serum”.

Question: What about the EC50 [3, 5] of the same molecule?
Answer: The EC50 was 0.363 µM.

Question: What about the “activity in words (novel axenic versus intracellular)” value ([3]; reference compound panel) of the same molecule?
Answer: Its value is “only active in the novel axenic assay”.

Question: What about the EC50 (THP-1 cells) of the same molecule?
Answer: Its EC50 is greater than 34.7 µM.

Question: What about the EC50 (HepG2 cells) of the same molecule?
Answer: The EC50 was 45.7 µM.

Question: What about the aqueous solubility [4] of the same molecule?
Answer: Its aqueous solubility is “poor”.

Question: What does the source list for `CC1=CC(=O)c2ccccc2C1=O` [Menadione]?
Answer: EC50 [1]: > 34.7 µM; EC50 [3, 5]: 10.2 µM; EC50 (THP-1 cells): 33.1 µM; EC50 (HepG2 cells): 3.47 µM

Question: Which results are given for `CCCCCCCCCCCCCCCCOP(=O)([O-])OCC[N+](C)(C)C` [Miltefosine]?
Answer: EC50 [1]: 0.794 µM; potency difference, intracellular assay relative to novel axenic assay ([1]; more active in the intracellular assay): around ten-fold; EC50 [3, 5]: 31.6 µM; EC50 (THP-1 cells): > 34.7 µM; EC50 (HepG2 cells): > 50.1 µM

Question: Which EC50 [1] does the source give for `COc1ccc2cc3[n+](cc2c1OC)CCc1cc2c(cc1-3)OCO2` [Berberine] here?
Answer: The EC50 was 16.2 µM.

Question: And the EC50 [3, 5]?
Answer: The EC50 was 9.33 µM.

Question: What about the EC50 (THP-1 cells) of the same molecule?
Answer: The EC50 was greater than 34.7 µM.

Question: And the EC50 (HepG2 cells)?
Answer: Its EC50 is 33.9 µM.

Question: Which EC50 [1] does the source give for `Cc1ccc(C(=O)Nc2ccc(S(=O)(=O)O)c3cc(S(=O)(=O)O)cc(S(=O)(=O)O)c23)cc1NC(=O)c1cccc(NC(=O)Nc2cccc(C(=O)Nc3cc(C(=O)Nc4ccc(S(=O)(=O)O)c5cc(S(=O)(=O)O)cc(S(=O)(=O)O)c45)ccc3C)c2)c1` [Suramin] here?
Answer: Its EC50 is greater than 34.7 µM.

Question: What about the EC50 [3, 5] of the same molecule?
Answer: Its EC50 is greater than 50.1 µM.

Question: What about the EC50 (THP-1 cells) of the same molecule?
Answer: The EC50 was greater than 34.7 µM.

Question: And the EC50 (HepG2 cells)?
Answer: Its EC50 is greater than 50.1 µM.

Question: Which EC50 [1] does the source give for `C[C@@H]1[C@H](O)[C@@H](C)/C=C/C=C/C=C/C=C/C=C/C=C/C=C/[C@H](O[C@@H]2O[C@H](C)[C@@H](O)[C@H](N)[C@@H]2O)C[C@@H]2O[C@](O)(C[C@@H](O)C[C@@H](O)[C@H](O)CC[C@@H](O)C[C@@H](O)CC(=O)O[C@H]1C)C[C@H](O)[C@H]2C(=O)O` [Amphotericin B] here?
Answer: The EC50 was 0.24 µM.

Question: And the EC50 ([3]; control on each plate, run to run over extended time period, ± StDev, read-out: average pEC50 of plate control (converted))?
Answer: Its EC50 is 0.126 µM.

Question: And the EC50 [3, 5]?
Answer: The EC50 was 0.302 µM.

Question: What about the EC50 (THP-1 cells) of the same molecule?
Answer: Its EC50 is 26.9 µM.

Question: What about the EC50 (HepG2 cells) of the same molecule?
Answer: The EC50 was greater than 50.1 µM.

Question: Which EC50 [1] does the source give for `OC(c1ccc(Cl)cc1)(c1cncnc1)c1ccccc1Cl` (stereo not drawn) [Fenarimol] here?
Answer: The EC50 was greater than 34.7 µM.

Question: And the EC50 [3, 5]?
Answer: Its EC50 is greater than 50.1 µM.

Question: What about the EC50 (THP-1 cells) of the same molecule?
Answer: Its EC50 is greater than 34.7 µM.

Question: And the EC50 (HepG2 cells)?
Answer: Its EC50 is greater than 50.1 µM.

Reference: paper PMC4583543, “Development and Validation of a Novel Leishmania donovani Screening Cascade for High-Throughput Screening Using a Novel Axenic Assay with High Predictivity of Leishmanicidal Intracellular Activity” (PLoS Neglected Tropical Diseases, 2015)
